Like-named read-outs stand apart in the source and are kept apart here.
Legend:
HCV replicon NK/R2AN = experiment: Evaluation of anti-HCV activity 2: inhibition of HCV replication, huh7.5.1 cells with replicon NK/R2AN, renilla luciferase; assay type: cell-based; settings: for EC50: Hepatitis C virus; for EC50 (in words): duplicated HCV treated with compound
Procedure: To evaluate the anti-HCV activity, that is the activity to inhibit HCV replication, of the compound represented by formula 1 of the present invention, the following experiment was performed.
The hepatoma cell line huh7.5.1 having NK/R2AN, the replicon with which the replication and translation of HCV could be measured, was distributed in a 12-well cell culture plate at the density of 50,000 cells/well. The cells were cultured in DMEM (Dulbecco's Modified Eagle's Medium 12800-017, GIBCO Co.) supplemented with 10% (v/v) FBS (Fetal Bovine Serum SH30406.02, Hyclone Co.), 1% (v/v) antibiotics (penicillin/streptomycin solution SV30010, Hyclone Co.), and G418 (600 μg/mL, Calbiochem) in a 37° C. 6.0% CO2 incubator (CO2 Incubator 311, Forma Scientific Co, Lnc. USA) for 24 hours to lead cell attachment on the plate. Then, the cells were inoculated with HCV having renilla luciferase gene as a reporter for 3 hours. Upon completion of the virus inoculation, the cell culture medium was replaced with the medium containing the compounds prepared in Examples 1˜24 were added to the culture medium at the concentrations of 40 pM˜1 μM each. The cells were cultured in a 37° C. 6.0% CO2 incubator (CO2 Incubator 311, Forma Scientific Co, Lnc. USA) for 3 days. Three days after the infection, the cell culture medium was collected to measure the cytotoxicity in the following Experimental Example 3. The cells attached on the plate were washed with PBS (phosphate buffered saline) and then lysed by treating 100 μl of 1× passive lysis buffer (Promega, E1941). The cell lysate (10 μl) was added to renilla luciferase assay reagent (50 μl) in renilla luciferase assay system (Promega, E2820), followed by measurement of luminescence for 10 seconds using the luciferase measure program with Luminometer (GLOMAX 20/20 Luminometer, Promega). At this time, the measurement of luminescence was performed in triplicate with the groups treated with the compounds of Examples 1˜24 and the non-treated control group. The mean value was calculated and compared. The luminescence of each compound over the concentration was converted into EC50 (half maximal effective concentration) by using sigma plot program, and the results are shown in Table 3. At this time, when EC50 was under 100 pM, it was marked as A; when EC50 was in the range of 100 pM 1 nM, it was marked as B; when EC50 was in the range of 1 nM˜100 nM, it was marked as C; and when EC50 was over 100 nM, it was marked as D. The results are shown in Table 3.

HCV (JFH-5aFlucm4) = experiment: Evaluation of anti-HCV activity 1: huh7.5.1 cells inoculated with HCV carrying renilla luciferase reporter; assay type: cell-based; settings: Hepatitis C virus
Procedure: To evaluate the anti-HCV activity of the compound represented by formula 1 of the present invention, the following experiment was performed.
The hepatoma cell line huh7.5.1 was distributed in a 12-well cell culture plate at the density of 50,000 cells/well. The cells were cultured in DMEM (Dulbecco's Modified Eagle's Medium 12800-017, GIBCO Co.) supplemented with 10% (v/v) FBS (Fetal Bovine Serum SH30406.02, Hyclone Co.) and 1% (v/v) antibiotics (penicillin/streptomycin solution SV30010, Hyclone Co.) in a 37° C. 6.0% CO2 incubator (CO2 Incubator 311, Forma Scientific Co, Lnc. USA) for 24 hours to lead cell attachment on the plate. Then, the cells were inoculated with HCV (JFH-5aFlucm4, PLoS One. 2011; 6(8):e228808.) having renilla luciferase gene as a reporter for 3 hours. Upon completion of the virus inoculation, the cell culture medium was replaced with the medium containing the compounds prepared in Examples 1˜24 at the concentration of 1 μM each. The cells were cultured in a 37° C. 6.0% CO2 incubator (CO2 Incubator 311, Forma Scientific Co, Lnc. USA) for 3 days. Three days after the infection, the cell culture medium was collected to measure the cytotoxicity in the following Experimental Example 3. The cells attached on the plate were washed with PBS (phosphate buffered saline) and then lysed by treating 100 μl of 1× passive lysis buffer (Promega, E1941). The cell lysate (10 μl) was added to renilla luciferase assay reagent (50 μl) in renilla luciferase assay system (Promega, E2820), followed by measurement of luminescence for 10 seconds using the luciferase measure program with Luminometer (GLOMAX 20/20 Luminometer, Promega). At this time, the measurement of luminescence was performed in triplicate with the groups treated with the compounds of Examples 1˜24 and the non-treated control group. The mean value was calculated and compared. The luminescence of each compound over the concentration was converted into EC50 (half maximal effective concentration) by using sigma plot program, and the results are shown in Table 2.

[1] = Huh-7.5.1, 72 h, read-out: EC50 grade
[2] = Huh-7.5.1, replicon huh7.5.1 cells, Table 3, read-out: EC50

| Compound | EC50 (HCV replicon NK/R2AN; [1]) [nM] | EC50 (HCV (JFH-5aFlucm4); [1]) [nM] | EC50 (HCV replicon NK/R2AN; [2]) [nM] | EC50 (in words) (HCV replicon NK/R2AN) | EC50 (HCV (JFH-5aFlucm4); Huh-7.5.1) [nM] | EC50 (HCV replicon NK/R2AN; Huh-7.5.1) [nM] |
| --- | --- | --- | --- | --- | --- | --- |
| COC(=O)N[C@@H](C(=O)N1CCC[C@H]1C(=O)Nc1ccc(-c2ccc(NC(=O)[C@@H]3CCCN3C(=O)[C@H](NC(=O)OC)c3ccccc3)c(C)c2)cc1C)c1ccccc1 [Example 1, dimethyl((1R,1′R)-((2S,2′S)-2,2′-(((3,3′-dimethyl-[1,1′-biphenyl]-4,4′-diyl)bis(azandiyl))bis(carbonyl))bis(pyrrolidine-2,1-diyl))bis(2-oxo-1-phenylethane-2,1-diyl))dicarbamate] | 1 to 100 | > 100 |  |  |  |  |
| COC(=O)N[C@@H](C(=O)N1CCC[C@H]1C(=O)Nc1ccc(-c2ccc(NC(=O)[C@@H]3CCCN3C(=O)[C@H](NC(=O)OC)c3ccccc3)cc2C(F)(F)F)c(C(F)(F)F)c1)c1ccccc1 [Example 2, dimethyl((1R,1′R)-((2S,2′S)-2,2′-(((2,2′-bis(trifluoromethyl)-[1,1′-biphenyl]-4,4′-diyl)bis(azandiyl))bis(carbonyl))bis(pyrrolidine-2,1-diyl))bis(2-oxo-1-phenylethane-2,1-diyl))dicarbamate] | < 0.1 | < 1 | < 0.1 | significantly low | < 1 |  |
| COC(=O)N[C@@H](C(=O)N1CCC[C@H]1C(=O)Nc1ccc(-c2ccc(NC(=O)[C@@H]3CCCN3C(=O)[C@H](NC(=O)OC)c3ccccc3)cc2C)c(C)c1)c1ccccc1 [Example 3, dimethyl((1R,1′R)-((2S,2′S)-2,2′-(((2,2′-dimethyl-[1,1′-biphenyl]-4,4′-diyl)bis(azandiyl))bis(carbonyl))bis(pyrrolidine-2,1-diyl))bis(2-oxo-1-phenylethane-2,1-diyl))dicarbamate] | < 0.1 | < 1 | < 0.1 | significantly low | < 1 |  |
| COC(=O)N[C@@H](C(=O)N1CCC[C@H]1C(=O)Nc1ccc2c(c1)Cc1cc(NC(=O)[C@@H]3CCCN3C(=O)[C@H](NC(=O)OC)c3ccccc3)ccc1-2)c1ccccc1 [Example 4, dimethyl((1R,1′R)-((2S,2′S)-2,2′-(((9H-fluorene-2,7-diyl)bis(azandiyl))bis(carbonyl))bis(pyrrolidine-2,1-diyl))bis(2-oxo-1-phenylethane-2,1-diyl))dicarbamate] | < 0.1 | 1 to 100 |  | significantly low |  | < 0.1 |
| COC(=O)N[C@@H](C(=O)N1CCC[C@H]1C(=O)Nc1ccc(-c2ccc(NC(=O)[C@@H]3CCCN3C(=O)[C@H](NC(=O)OC)c3ccccc3)cc2F)c(F)c1)c1ccccc1 [Example 5, dimethyl((1R,1′R)-((2S,2′S)-2,2′-(((2,2′-difluoro-[1,1′-biphenyl]-4,4′-diyl)bis(azandiyl))bis(carbonyl))bis(pyrrolidine-2,1-diyl))bis(2-oxo-1-phenylethane-2,1-diyl))dicarbamate] | < 0.1 | < 1 | < 0.1 | significantly low | < 1 |  |
| COC(=O)N[C@@H](C(=O)N1CCC[C@H]1C(=O)Nc1ccc(-c2ccc(NC(=O)[C@@H]3CCCN3C(=O)[C@H](NC(=O)OC)c3ccccc3)cc2Cl)c(Cl)c1)c1ccccc1 [Example 6, dimethyl((1R,1′R)-((2S,2′S)-2,2′-(((2,2′-dichloro-[1,1′-biphenyl]-4,4′-diyl)bis(azandiyl))bis(carbonyl))bis(pyrrolidine-2,1-diyl))bis(2-oxo-1-phenylethane-2,1-diyl))dicarbamate] | < 0.1 | < 1 | < 0.1 | significantly low | < 1 |  |
| COC(=O)N[C@@H](C(=O)N1CCC[C@H]1C(=O)Nc1ccc(-c2ccc(NC(=O)[C@@H]3CCCN3C(=O)[C@H](NC(=O)OC)c3ccccc3)cc2Br)c(Br)c1)c1ccccc1 [Example 7, dimethyl((1R,1′R)-((2S,2′S)-2,2′-(((2,2′-dibromo-[1,1′-biphenyl]-4,4′-diyl)bis(azandiyl))bis(carbonyl))bis(pyrrolidine-2,1-diyl))bis(2-oxo-1-phenylethane-2,1-diyl))dicarbamate] | < 0.1 | < 1 | < 0.1 | significantly low | < 1 |  |
| COC(=O)N[C@@H](C(=O)N1CCC[C@@H]1C(=O)Nc1ccc(-c2ccc(NC(=O)[C@H]3CCCN3C(=O)[C@H](NC(=O)OC)c3ccccc3)cc2)cc1)c1ccccc1 [Example 8, dimethyl((1R,1′R)-((2R,2′R)-2,2′-(([1,1′-biphenyl]-4,4′-diylbis(azandiyl))bis(carbonyl))bis(pyrrolidine-2,1-diyl))bis(2-oxo-1-phenylethane-2,1-diyl))dicarbamate] | 1 to 100 | > 100 |  |  |  |  |
| COC(=O)N[C@@H](C(=O)N1CCC[C@H]1C(=O)Nc1ccc(-c2ccc(NC(=O)[C@@H]3CCCN3C(=O)[C@H](NC(=O)OC)C(C)C)cc2)cc1)C(C)C [Example 13, dimethyl(2R,2′R)-1,1′-((2S,2′S)-2,2′-(biphenyl-4,4′-diylbis(azandiyl))bis(oxomethylene)bis(pyrrolidine-2,1-diyl))bis(3-methyl-1-oxobutane-2,1-diyl)dicarbamate] |  | > 100 |  |  |  |  |
| O=C(Nc1ccc(-c2ccc(NC(=O)[C@@H]3CCCN3C(=O)[C@H]3CCCO3)cc2)cc1)[C@@H]1CCCN1C(=O)[C@H]1CCCO1 [Example 17] |  | > 100 |  |  |  |  |
| COC(=O)N[C@@H](C)C(=O)N1CCC[C@H]1C(=O)Nc1ccc(-c2ccc(NC(=O)[C@@H]3CCCN3C(=O)[C@H](C)NC(=O)OC)cc2)cc1 [Example 18, dimethyl(2S,2′S)-1,1′-((2S,2′R)-2,2′-(biphenyl-4,4′-diylbis(azandiyl))bis(oxomethylene)bis(pyrrolidine-2,1-diyl))bis(1-oxopropane-2,1-diyl)dicarbamate] |  | > 100 |  |  |  |  |
| COC(=O)N[C@H](C(=O)N1CCC[C@H]1C(=O)Nc1ccc(-c2ccc(NC(=O)[C@@H]3CCCN3C(=O)[C@@H](NC(=O)OC)C(C)(C)C)cc2)cc1)C(C)(C)C [Example 19, dimethyl(2S,2′S)-1,1′-((2S,2′R)-2,2′-(biphenyl-4,4′-diylbis(azandiyl))bis(oxomethylene)bis(pyrrolidine-2,1-diyl))bis(3,3-dimethyl-1-oxobutane-2,1-diyl)dicarbamate] |  | 1 to 100 |  |  |  |  |
| COC(=O)N[C@H](C(=O)N1CCC[C@H]1C(=O)Nc1ccc(-c2ccc(NC(=O)[C@@H]3CCCN3C(=O)[C@@H](NC(=O)OC)C(C)C)cc2)cc1)C(C)C [Example 20, dimethyl(2S,2′S)-1,1′-((2S,2′R)-2,2′-(biphenyl-4,4′-diylbis(azandiyl))bis(oxomethylene)bis(pyrrolidine-2,1-diyl))bis(3-methyl-1-oxobutane-2,1-diyl)dicarbamate] |  | > 100 |  |  |  |  |

Source: patent US9598362B2, “Benzidine derivative, method for preparing same, and pharmaceutical composition containing benzidine derivative for treating liver disease caused by hepatitis C virus” (priority 2013, dated 2017)
